Experimental data: publication PMC5468247, “Development of a selective agonist for relaxin family peptide receptor 3” (Scientific Reports, 2017)

Tests used:
[1] = molecular target: T1, human RXFP4 (Homo sapiens, UniProt Q8TDU9); experiment: Receptor binding assay, NanoLuc-conjugated R3/I5 tracer competition; details: for binding potency towards RXFP4, in words: compared with R3/I5
T1 construct: expressed in transfected cells; host or cells: HEK293T
Procedure: (§1) Specific binding data are expressed as means ± SE (n = 3) and fitted to sigmoidal curves using SigmaPlot 10.0 software.
(§2) Briefly, HEK293T cells were transiently transfected with an expression construct of human RXFP3 or human RXFP4. On the next day, transfected cells were trypsinised, seeded into 96-well plates, and continuously cultured for 24–36 h to ~100% confluence. […] After incubation at 21 °C for 2 h, binding solution was removed and cells were washed twice with ice-cold phosphate-buffered saline (200 μl/well for each wash). Thereafter, cells were lysed by lysis solution (100 μl/well, Promega, Madison, WI, USA) and cell lysates were transferred to a white opaque 96-well plate (50 μl/well). After mixing with freshly diluted substrate (50 μl/well), bioluminescence was immediately measured on a SpectraMax M5 plate reader (Molecular Devices, Sunnyvale, CA, USA) in luminescence mode. […] The calculated specific binding data were expressed as means ± standard error (SE; n = 3) and fitted to sigmoidal curves using SigmaPlot 10.0 software.

[2] = molecular target: T2, human RXFP3 (Homo sapiens, UniProt Q9NSD7); experiment: as above; details: for binding potency towards RXFP3, in words: compared with R3/I5
T2 construct: expressed in transfected cells; host or cells: HEK293T
T2 sequence (Q9NSD7 1-469): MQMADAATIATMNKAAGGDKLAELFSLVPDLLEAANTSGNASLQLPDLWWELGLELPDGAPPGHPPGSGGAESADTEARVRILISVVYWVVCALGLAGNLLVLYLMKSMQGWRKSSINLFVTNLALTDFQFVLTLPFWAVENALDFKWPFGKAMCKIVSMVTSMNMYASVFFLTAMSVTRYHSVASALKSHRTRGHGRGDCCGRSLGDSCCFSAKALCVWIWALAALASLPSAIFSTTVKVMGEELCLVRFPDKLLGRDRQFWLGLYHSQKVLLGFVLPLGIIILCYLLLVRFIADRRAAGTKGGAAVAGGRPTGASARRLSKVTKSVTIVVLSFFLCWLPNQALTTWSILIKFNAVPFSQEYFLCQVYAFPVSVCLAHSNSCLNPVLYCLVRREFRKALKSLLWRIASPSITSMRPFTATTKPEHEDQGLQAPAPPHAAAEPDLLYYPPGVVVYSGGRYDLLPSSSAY
Procedure: as §1, §2

[3] = molecular target: T1, human RXFP4; experiment: Receptor activation assay, CRE-controlled NanoLuc reporter; assay type: cell-based; details: relative to R3/I5
Text: (§3) HEK293T cells transiently cotransfected with a CRE-controlled NanoLuc reporter vector and the expression construct of human RXFP3 or human RXFP4 were used for activation assays. The measured bioluminescence data are expressed as means ± SE (n = 3) and fitted to sigmoidal or linear curves using SigmaPlot 10.0.
(§4) Briefly, HEK293T cells were transiently cotransfected with the NanoLuc reporter vector pNL1.2/CRE and the expression construct of human RXFP3 or human RXFP4. On the next day, transfected cells were trypsinised, seeded into 96-well plates, and continuously cultured for 24–36 h to ~90% confluence. To initiate activation assays, medium was removed and activation solution (serum-free DMEM medium plus 1% bovine serum albumin) containing 1.0 μM of forskolin and various concentrations of peptide was added (100 μl/well). After continuous culturing at 37 °C for 4 h, activation solution was removed and cells were lysed with lysis solution (100 μl/well, Promega). Cell lysates were then transferred to a white opaque 96-well plate (50 μl/well), mixed with freshly diluted substrate (50 μl/well), and bioluminescence was immediately measured on a SpectraMax M5 plate reader (Molecular Devices) in luminescence mode. The measured data were expressed as means ± SE (n = 3) and fitted to sigmoidal or linear curves using SigmaPlot 10.0 software.

[4] = molecular target: T2, human RXFP3; experiment: as above; assay type: cell-based; details: CRE-NanoLuc reporter, human RXFP3; for fold lower activation potency towards RXFP3 compared with R3/I5: relative to R3/I5
Text: as §3, §4

T1 sequence (Q8TDU9 whole entry): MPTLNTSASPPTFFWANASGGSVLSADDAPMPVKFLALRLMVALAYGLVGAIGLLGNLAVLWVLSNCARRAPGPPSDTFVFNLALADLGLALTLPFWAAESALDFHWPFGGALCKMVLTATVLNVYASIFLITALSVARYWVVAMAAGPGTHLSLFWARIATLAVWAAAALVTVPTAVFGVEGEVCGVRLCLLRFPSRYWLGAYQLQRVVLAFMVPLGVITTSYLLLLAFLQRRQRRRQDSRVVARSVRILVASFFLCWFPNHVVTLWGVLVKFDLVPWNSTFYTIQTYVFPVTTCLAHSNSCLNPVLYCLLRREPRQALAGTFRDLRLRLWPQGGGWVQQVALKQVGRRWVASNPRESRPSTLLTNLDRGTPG

| Compound | fold lower binding potency towards RXFP4 compared with R3/I5 ([1]; relative to R3/I5) | fold lower binding potency for RXFP3 compared with R3/I5 ([2]; relative to R3/I5) | fold lower activation potency towards RXFP4 compared with R3/I5 [3] | activation potency towards RXFP3, in words ([4]; compared with R3/I5) | binding potency towards RXFP4, in words [1] | binding potency towards RXFP3, in words [2] | fold lower activation potency towards RXFP3 compared with R3/I5 [4] |
| --- | --- | --- | --- | --- | --- | --- | --- |
| CC[C@H](C)[C@@H]1NC(=O)[C@H](Cc2ccccc2)NC(=O)[C@H](CCC(=O)O)NC(=O)[C@H](CCCNC(=N)N)NC(=O)CNC(=O)[C@@H](NC(=O)[C@H](CC(C)C)NC(=O)[C@H](CCCNC(=N)N)NC(=O)[C@@H](NC(=O)CNC(=O)[C@H](Cc2ccc(O)cc2)NC(=O)[C@@H]2CCCN2C(=O)[C@H](C)NC(=O)[C@H](C)NC(=O)[C@H](CCCNC(=N)N)NC(=O)[C@@H]2CCC(=O)N2)C(C)C)CSSC[C@@H]2NC(=O)[C@@H](NC(=O)[C@H](CC(C)C)NC(=O)[C@@H](NC(=O)[C@H](CCC(N)=O)NC(=O)[C@H](CC(C)C)NC(=O)[C@H](CC(=O)O)NC(=O)[C@H](CCC(N)=O)NC(=O)[C@H](CCCNC(=N)N)NC(=O)[C@H](CO)NC(=O)[C@H](CCCNC(=N)N)NC(=O)[C@H](CCCNC(=N)N)NC(=O)[C@H](CO)NC(=O)[C@@H](N)CCCNC(=N)N)[C@@H](C)O)CSSC[C@H](NC(=O)CNC(=O)[C@H](CC(=O)O)NC(=O)[C@H]([C@@H](C)O)NC2=O)C(=O)N[C@@H](CO)C(=O)N[C@@H](CCSC)C(=O)N[C@@H]([C@@H](C)O)C(=O)N[C@@H](CC(=O)O)C(=O)N[C@@H](CC(C)C)C(=O)N[C@@H](CO)C(=O)N[C@@H](C)C(=O)N[C@@H](CC(C)C)C(=O)N[C@H](C(=O)O)CSSC[C@@H](C(=O)N[C@@H](CO)C(=O)N[C@@H](CCCNC(=N)N)C(=O)N[C@@H](Cc2c[nH]c3ccccc23)C(=O)O)NC(=O)[C@H]([C@@H](C)O)NC(=O)[C@H](Cc2ccccc2)NC(=O)[C@H]([C@@H](C)CC)NC(=O)[C@H](C(C)C)NC(=O)[C@H](C)NC(=O)[C@H](CCCNC(=N)N)NC1=O [[∆B23-24]R3/I5] | ~ 10 fold | ~ 3 fold | ~ 1000 fold | lost all activation potency | – | – | – |
| CC[C@H](C)[C@@H]1NC(=O)[C@H](Cc2ccccc2)NC(=O)[C@H](CCC(=O)O)NC(=O)[C@H](CCCNC(=N)N)NC(=O)CNC(=O)[C@@H](NC(=O)[C@H](CC(C)C)NC(=O)[C@H](CCCNC(=N)N)NC(=O)[C@@H](NC(=O)CNC(=O)[C@H](Cc2ccc(O)cc2)NC(=O)[C@@H]2CCCN2C(=O)[C@H](C)NC(=O)[C@H](C)NC(=O)[C@H](CCCNC(=N)N)NC(=O)[C@@H]2CCC(=O)N2)C(C)C)CSSC[C@@H]2NC(=O)[C@@H](NC(=O)[C@H](CC(C)C)NC(=O)[C@@H](NC(=O)[C@H](CCC(N)=O)NC(=O)[C@H](CC(C)C)NC(=O)[C@H](CC(=O)O)NC(=O)[C@H](CCC(N)=O)NC(=O)[C@H](CCCNC(=N)N)NC(=O)[C@H](CO)NC(=O)[C@H](CCCNC(=N)N)NC(=O)[C@H](CCCNC(=N)N)NC(=O)[C@H](CO)NC(=O)[C@@H](N)CCCNC(=N)N)[C@@H](C)O)CSSC[C@H](NC(=O)CNC(=O)[C@H](CC(=O)O)NC(=O)[C@H]([C@@H](C)O)NC2=O)C(=O)N[C@@H](CO)C(=O)N[C@@H](CCSC)C(=O)N[C@@H]([C@@H](C)O)C(=O)N[C@@H](CC(=O)O)C(=O)N[C@@H](CC(C)C)C(=O)N[C@@H](CO)C(=O)N[C@@H](C)C(=O)N[C@@H](CC(C)C)C(=O)N[C@H](C(=O)O)CSSC[C@@H](C(=O)N[C@@H](CCCNC(=N)N)C(=O)N[C@@H](Cc2c[nH]c3ccccc23)C(=O)O)NC(=O)[C@H]([C@@H](C)O)NC(=O)[C@H](Cc2ccccc2)NC(=O)[C@H]([C@@H](C)CC)NC(=O)[C@H](C(C)C)NC(=O)[C@H](C)NC(=O)[C@H](CCCNC(=N)N)NC1=O [[∆B23-25]R3/I5] | – | – | ~ 30 fold | – | almost normal binding potency | almost normal binding potency | ~ 30 fold |
| CC[C@H](C)[C@@H]1NC(=O)[C@H](Cc2ccccc2)NC(=O)[C@H](CCC(=O)O)NC(=O)[C@H](CCCNC(=N)N)NC(=O)CNC(=O)[C@@H](NC(=O)[C@H](CC(C)C)NC(=O)[C@H](CCCNC(=N)N)NC(=O)[C@@H](NC(=O)CNC(=O)[C@H](Cc2ccc(O)cc2)NC(=O)[C@@H]2CCCN2C(=O)[C@H](C)NC(=O)[C@H](C)NC(=O)[C@H](CCCNC(=N)N)NC(=O)[C@@H]2CCC(=O)N2)C(C)C)CSSC[C@@H]2NC(=O)[C@@H](NC(=O)[C@H](CC(C)C)NC(=O)[C@@H](NC(=O)[C@H](CCC(N)=O)NC(=O)[C@H](CC(C)C)NC(=O)[C@H](CC(=O)O)NC(=O)[C@H](CCC(N)=O)NC(=O)[C@H](CCCNC(=N)N)NC(=O)[C@H](CO)NC(=O)[C@H](CCCNC(=N)N)NC(=O)[C@H](CCCNC(=N)N)NC(=O)[C@H](CO)NC(=O)[C@@H](N)CCCNC(=N)N)[C@@H](C)O)CSSC[C@H](NC(=O)CNC(=O)[C@H](CC(=O)O)NC(=O)[C@H]([C@@H](C)O)NC2=O)C(=O)N[C@@H](CO)C(=O)N[C@@H](CCSC)C(=O)N[C@@H]([C@@H](C)O)C(=O)N[C@@H](CC(=O)O)C(=O)N[C@@H](CC(C)C)C(=O)N[C@@H](CO)C(=O)N[C@@H](C)C(=O)N[C@@H](CC(C)C)C(=O)N[C@H](C(=O)O)CSSC[C@@H](C(=O)NCC(=O)N[C@@H](CO)C(=O)N[C@@H](CCCNC(=N)N)C(=O)N[C@@H](Cc2c[nH]c3ccccc23)C(=O)O)NC(=O)[C@H]([C@@H](C)O)NC(=O)[C@H](Cc2ccccc2)NC(=O)[C@H]([C@@H](C)CC)NC(=O)[C@H](C(C)C)NC(=O)[C@H](C)NC(=O)[C@H](CCCNC(=N)N)NC1=O [[∆B23]R3/I5] | – | – | ~ 300 fold | – | retained considerable binding potency | retained considerable binding potency | ~ 300 fold |
